This is an account of results in patent US20040248887A1, “Inhibitors of cathepsin S” (IRM LLC, priority 2003, published 2004).

pKi: −log10 of the molar value.

As usually defined, the pKi is −log10 of the Ki, conventionally taken in molar units.

The target of the assay is Cathepsin S (Homo sapiens, UniProt P25774). The experiment in a line: Cathepsin S inhibition, fluorogenic peptide substrate kinetic assay. Format: biochemical. The note with it: Table II; Cathepsin S inhibition constant, pH5.5; read-out: Ki Cat. S. The text has this:
“Inhibition constant”, Ki, is the dissociation constant of the enzyme-inhibitor complex, or the reciprocal of the binding affinity of the inhibitor to the enzyme. […] The inhibited rates are then fit by nonlinear regression to the following equation: [formula]
where vo is the initial rate of substrate processing in the absence of inhibitor, v; is the initial rate of substrate processing at a concentration [I] of inhibitor, Km is the steady state Michaelis constant (Fersht, A. Structure and Mechanism in Protein Science. New York, W.H. Freeman and Company, 1999), and [S] is the concentration of competitive substrate.
The assumption being made for the classical inhibition described above is that the free inhibitor concentration is equal to the total inhibitor concentration.
The inhibition constant, Ki, can be determined from the apparent inhibition constant, Ki^app, for competitive inhibitors by using the following relationship: [formula]
The optimal substrate for cathepsin S, acetyl-histidine-proline-valine-lysine-amino carbamoyl coumarin, was identified from screening a combinatorial library of fluorogenic peptide substrates (Harris, J. L., B. J. Backes, et al., Proc Natl Acad Sci USA 2000, 97(14), 7754-9). Kinetic measurements are performed in a total reaction volume of 30 μl in 384-well microtiter plates. […] The reactions are initiated by adding the substrate, acetyl-histidine-proline-valine-lysine-amino carbamoyl coumarin, to a final concentration of 50 μM. The rate of substrate hydrolysis is measured by monitoring the increase in fluorescence at an excitation wavelength of 380 nm and an emission wavelength of 450 nm that results from cleavage of the aniline bond in the substrate by the enzyme. The apparent inhibition constants for the compounds are determined from the enzyme progress curves (Kuzmic, P., K. C. Elrod, et al., Anal Biochem 2000, 286(1), 45-50) and are then used to calculate the inhibition constants for competitive inhibitors.

Cathepsin S, sequence (P25774 115-331, species assumed): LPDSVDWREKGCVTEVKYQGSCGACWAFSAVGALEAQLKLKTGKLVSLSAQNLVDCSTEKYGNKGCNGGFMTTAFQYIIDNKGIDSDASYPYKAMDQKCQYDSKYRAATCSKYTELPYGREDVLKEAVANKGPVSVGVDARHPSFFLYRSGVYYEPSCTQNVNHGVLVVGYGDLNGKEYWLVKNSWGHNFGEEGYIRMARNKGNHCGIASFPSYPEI

As to `C[C@@H](CN1CCc2cc(F)ccc21)NC(=O)[C@H](CC1CCCCC1)NS(=O)(=O)c1csc(-c2cnco2)c1` [Compound 250, (S,S)-3-Cyclohexyl-N-[2-(5-fluoro-2,3-dihydro-indol-1-yl)-1-methyl-ethyl]-2-(5-oxazol-5-yl-thiophene-3-sulfonylamino)-propionamide], the pKi is above 7.00.

For `CC(C(=O)N[C@@H](CC1CCCCC1)C(=O)NCCN1CCc2cc(F)ccc21)c1ccc(Cl)cc1` (stereo partly drawn) [Compound 64, 2-(4-Chloro-phenyl)-N-{2-cyclohexyl-1-(S)-[2-(5-fluoro-2,3-dihydro-indol-1-yl)-ethylcarbamoyl]-ethyl}-propionamide], the pKi was above 7.00.

On to `C[C@@H](CNc1ccc(OC(F)(F)F)cc1)NC(=O)[C@H](CC(C)(C)C)NC(=O)[C@H]1CCCO1` [Compound 268, Tetrahydrofuran-2-(R)-carboxylic acid {3,3-dimethyl-1-(S)-[1-(S)-methyl-2-(4-trifluoromethoxy-phenylamino)-ethylcarbamoyl]-butyl}-amide], for which the negative logarithm of the Ki (pKi) was above 5.00.

In the case of `C[C@@H](CNc1ccc(OC(F)(F)F)cc1)NC(=O)[C@H](CC1CCCC1)NC(=O)OC1CCOCC1` [Compound 190, (S,S)-{2-Cyclopentyl-1-[1-methyl-2-(4-trifluoromethoxy-phenylamino)-ethylcarbamoyl]-ethyl}-carbamic acid tetrahydropyran-4-yl ester], the negative logarithm of the Ki (pKi) is above 7.00.

Take `Cn1cnc(C(=O)N[C@@H](CC2CCCCC2)C(=O)NCCN2CCc3cc(F)ccc32)c1` [Compound 63, 1-Methyl-1H-imidazole-4-carboxylic acid (S)-{2-cyclohexyl-1-[2-(5-fluoro-2,3-dihydro-indol-1-yl)-ethylcarbamoyl]-ethyl}-amide]: the negative logarithm of the Ki (pKi) is above 6.00.

Regarding `C[C@@H](CN1CCc2cc(F)ccc21)NC(=O)[C@H](CC1CCCCC1)NS(=O)(=O)c1cccc(Cl)c1` [Compound 259, (S,S)-2-(3-Chloro-benzenesulfonylamino)-3-cyclohexyl-N-[2-(5-fluoro-2,3-dihydro-indol-1-yl)-1-methyl-ethyl]-propionamide], the pKi was above 7.00.

For `C[C@@H](CNc1ccc(OC(F)(F)F)cc1)NC(=O)[C@H](CC1CCCC1)NC(=O)O[C@H]1CCOC1` [Compound 192, (S,S)-{2-Cyclopentyl-1-[1-methyl-2-(4-trifluoromethoxy-phenylamino)-ethylcarbamoyl]-ethyl}-carbamic acid tetrahydrofuran-3-(S)-yl ester], the pKi was above 7.00.

Take `O=C(N[C@@H](CC1CC1)C(=O)NCCN1CCc2cc(F)ccc21)c1ccc(-c2cccc(C(F)(F)F)c2)o1` [Compound 194, N-((S)-1-(2-(5-fluoroindolin-1-yl)ethylcarbamoyl)-2-cyclopropylethyl)-5-(3-(trifluoromethyl)phenyl)furan-2-carboxamide]: the pKi was above 6.00.

As to `Cc1cccc(S(=O)(=O)N[C@@H](CC(C)(C)C)C(=O)N[C@@H](C)CN2CCc3cc(F)ccc32)c1` [Compound 265, (S,S)-4,4-Dimethyl-2-(toluene-3-sulfonylamino)-pentanoic acid [2-(5-fluoro-2,3-dihydro-indol-1-yl)-1-methyl-ethyl]-amide], the negative logarithm of the Ki (pKi) was above 7.00.

Turning to `C[C@@H](CNc1ccc(OC(F)(F)F)cc1)NC(=O)[C@H](CC1CCCCC1)NC(=O)O[C@@H]1CCNC1` [Compound 187, {2-Cyclohexyl-1-(S)-[1-(S)-methyl-2-(4-trifluoromethoxy-phenylamino)-ethylcarbamoyl]-ethyl}-carbamic acid pyrrolidin-3-(R)-yl ester], the negative-log Ki (pKi) was above 5.00.

On to `C[C@@H](CNc1ccc(OC(F)(F)F)cc1)NC(=O)[C@H](CC1CCCCC1)NC(=O)C1CCOC1` (mixture of isomers) [Compound 272, Tetrahydrofuran-3-(R,S)-carboxylic acid {2-cyclohexyl-1-(S)-[1-(S)-methyl-2-(4-trifluoromethoxy-phenylamino)-ethylcarbamoyl]-ethyl}-amide], for which the negative logarithm of the Ki (pKi) was above 7.00.

For `C[C@@H](CNc1c(F)cccc1F)NC(=O)[C@H](CC1CCCCC1)NC(=O)c1ccc(-c2cccc(F)c2)o1` [Compound 92, 5-(3-Fluoro-phenyl)-furan-2-carboxylic acid {2-cyclohexyl-1-(S)-[2-(2,6-difluoro-phenylamino)-1-(S)-methyl-ethylcarbamoyl]-ethyl}-amide], the pKi is above 7.00.

For `Cc1noc(C)c1S(=O)(=O)N[C@@H](CC1CCCCC1)C(=O)N[C@@H](C)CN1CCc2cc(F)ccc21` [Compound 263, (S,S)-3-Cyclohexyl-2-(3,5-dimethyl-isoxazole-4-sulfonylamino)-N-[2-(5-fluoro-2,3-dihydro-indol-1-yl)-1-methyl-ethyl]-propionamide], the negative-log Ki (pKi) is above 7.00.

In the case of `C[C@@H](CNc1ccc(OC(F)(F)F)cc1)NC(=O)[C@H](CC1CCCCC1)NC(=O)c1nc(-c2cccc(F)c2)no1` [Compound 108, 3-(3-Fluoro-phenyl)-[1,2,4]oxadiazole-5-carboxylic acid {2-cyclohexyl-1-(S)-[1-(S)-methyl-2-(4-trifluoromethoxy-phenylamino)-ethylcarbamoyl]-ethyl}-amide], the negative logarithm of the Ki (pKi) is above 7.00.

Consider `C[C@@H](CNc1ccc(S(N)(=O)=O)cc1)NC(=O)[C@H](CC1CCCCC1)NC(=O)c1ccc(-c2cccc(F)c2)o1` [Compound 138, 5-(3-Fluoro-phenyl)-furan-2-carboxylic acid {2-cyclohexyl-1-(S)-[1-(S)-methyl-2-(4-sulfamoyl-phenylamino)-ethylcarbamoyl]-ethyl}-amide], for which the pKi was above 6.00.

For `COc1cccc(C(=O)N[C@@H](CC2CCCCC2)C(=O)N[C@@H](CC(=O)OCc2ccccc2)CN2CCc3cc(F)ccc32)c1` [Compound 161, 3-(S)-[3-Cyclohexyl-2-(S)-(3-methoxy-benzoylamino)-propionylamino]-4-(5-fluoro-2,3-dihydro-indol-1-yl)-butyric acid benzyl ester], the pKi was above 7.00.

As for `Cc1ccc(C(C)C(=O)N[C@@H](CC2CCCCC2)C(=O)NCCN2CCc3cc(F)ccc32)cc1` (stereo partly drawn) [Compound 60, N-{2-cyclohexyl-1-(S)-[2-(5-fluoro-2,3-dihydro-indol-1-yl)-ethylcarbamoyl]-ethyl}-2-p-tolyl-propionamide], the pKi was above 7.00.

Consider `C[C@@H](CNc1ccc(C#N)cc1)NC(=O)[C@H](CC1CCCCC1)NC(=O)c1ccc(-c2cccc(F)c2)o1` [Compound 93, 5-(3-Fluoro-phenyl)-furan-2-carboxylic acid {1-(S)-[2-(4-cyano-phenylamino)-1-(S)-methyl-ethylcarbamoyl]-2-cyclohexyl-ethyl}-amide], for which the pKi was above 6.00.

In the case of `C[C@@H](CNc1ccc(OC(F)(F)F)cc1)NC(=O)[C@H](CC1CCCCC1)NC(=O)C1CCOCC1` [Compound 135, Tetrahydropyran-4-carboxylic acid {2-cyclohexyl-1-(S)-[1-(S)-methyl-2-(4-trifluoromethoxy-phenylamino)-ethylcarbamoyl]-ethyl}-amide], the pKi is above 7.00.

In the case of `O=C(N[C@@H](CC1CCCCC1)C(=O)NCCN1CCc2cc(F)ccc21)c1ccc(OC2CCNCC2)cc1` [Compound 67, N-(S)-{2-cyclohexyl-1-[2-(5-fluoro-2,3-dihydro-indol-1-yl)-ethylcarbamoyl]-ethyl}-4-(piperidin-4-yloxy)-benzamide], the pKi was above 6.00.

On to `C[C@@H](CNc1ccc(OC(F)(F)F)cc1)NC(=O)[C@H](CC1CCCCC1)NC(=O)c1cnn(-c2ccc(F)cc2)c1` [Compound 142, 1-(4-Fluoro-phenyl)-1H-pyrazole-4-carboxylic acid {2-cyclohexyl-1-(S)-[1-(S)-methyl-2-(4-trifluoromethoxy-phenylamino)-ethylcarbamoyl]-ethyl}-amide], for which the pKi is above 7.00.

Regarding `COc1ccc(-c2ccc(S(=O)(=O)N[C@@H](CC3CCCCC3)C(=O)NCCN3CCc4cc(F)ccc43)cc2)cc1` [Compound 238, (S)-3-Cyclohexyl-N-[2-(5-fluoro-2,3-dihydro-indol-1-yl)-ethyl]-2-(4′-methoxy-biphenyl-4-sulfonylamino)-propionamide], the pKi is above 7.00.

With `C[C@@H](CN1CC(C)(C)c2cc(F)ccc21)NC(=O)[C@H](CC(C)(C)C)NC(=O)C1CCOCC1` [Compound 270, Tetrahydro-pyran-4-carboxylic acid {1-(S)-[2-(5-fluoro-3,3-dimethyl-2,3-dihydro-indol-1-yl)-1-(S)-methyl-ethylcarbamoyl]-3,3-dimethyl-butyl}-amide], the negative logarithm of the Ki (pKi) is above 6.00.

Take `O=C(NCCN1CCc2cc(F)ccc21)[C@H](CC1CCCCC1)NS(=O)(=O)c1ccc(Cl)s1` [Compound 227, (S)-2-(5-Chloro-thiophene-2-sulfonylamino)-3-cyclohexyl-N-[2-(5-fluoro-2,3-dihydro-indol-1-yl)-ethyl]-propionamide]: the negative logarithm of the Ki (pKi) was above 7.00.
